Molecular target: S. pneumoniae Topoisomerase IV ATPase (ParE) (Streptococcus pneumoniae serotype 4, UniProt Q59961)
Test: S. pneumoniae Topoisomerase IV ATPase inhibition
Format: biochemical
Settings: values marked * are an average of two or more data points, read-out: % Inh (13 μM) of S. pneumoniae Topoisomerase IV ATPase
Method: S. pneumoniae Topoisomerase IV ATPase Inhibition Activity: Compounds may be tested for inhibition of S. pneumoniae ParE ATPase activity using an ammonium molybdate/malachite green-based phosphate detection assay (Lanzetta, P. A., L. J. Alvarez, P. S. Reinach, and O. A. Candia, 1979, 100: 95-97). Assays are performed in multiwell plates in 30 μl reactions containing: 20 mM Tris buffer pH 8.0, 50 mM ammonium acetate, 8.0 mM magnesium chloride, 0.5 mM ethylenediaminetetraacetic acid, 5% glycerol, 5 mM 1,4-Dithio-DL-threitol, 0.005% Brij-35, 5 μg/ml sheared salmon sperm DNA, 1.25 nM S. pneumoniae ParE, 160 μM ATP, and test compound in dimethylsulfoxide. Reactions are quenched with 30 μl of ammonium molybdate/malachite green detection reagent containing 1.2 mM malachite green hydrochloride, 8.5 mM ammonium molybdate tetrahydrate, and 1 M hydrochloric acid. Plates are read in an absorbance plate reader at 650 nm and percent inhibition values are calculated using dimethylsulfoxide (2%)-containing reactions as 0% inhibition and EDTA-containing ([…]) reactions as 100% inhibition controls. An IC50 measurement of compound potency for each compound can be determined from reactions performed in the presence of 10 different compound concentrations.
Many of the compounds of the invention were tested in an assay substantially similar to the assays described above for measuring the inhibition of E.coli GyrB ATPase, E. coli Topoisomerase IV ATPase, S. aureus GyrB ATPase, and S. pneumoniae Topoisomerase IV ATPase, and had IC50 values of <200 μM in one or more assays.

S. pneumoniae Topoisomerase IV ATPase (ParE), sequence (Q59961 whole entry): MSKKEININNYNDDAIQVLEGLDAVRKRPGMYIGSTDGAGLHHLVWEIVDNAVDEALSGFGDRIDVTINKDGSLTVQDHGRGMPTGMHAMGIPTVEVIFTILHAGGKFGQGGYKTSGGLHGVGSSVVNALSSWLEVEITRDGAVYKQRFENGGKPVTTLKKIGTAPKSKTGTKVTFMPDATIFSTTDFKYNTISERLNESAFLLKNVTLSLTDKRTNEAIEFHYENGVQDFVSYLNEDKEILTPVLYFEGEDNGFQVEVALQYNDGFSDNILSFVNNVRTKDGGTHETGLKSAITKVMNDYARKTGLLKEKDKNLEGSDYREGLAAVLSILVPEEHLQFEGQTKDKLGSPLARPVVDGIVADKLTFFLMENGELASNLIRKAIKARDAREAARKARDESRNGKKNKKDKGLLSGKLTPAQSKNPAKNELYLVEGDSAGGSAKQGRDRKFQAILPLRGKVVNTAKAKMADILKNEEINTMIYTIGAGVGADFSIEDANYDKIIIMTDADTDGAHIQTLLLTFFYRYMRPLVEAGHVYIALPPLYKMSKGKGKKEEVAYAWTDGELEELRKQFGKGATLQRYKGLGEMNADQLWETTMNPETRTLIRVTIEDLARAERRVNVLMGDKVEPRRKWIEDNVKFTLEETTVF

Which inhibition at 13 µM does the source give for `Fc1ccc(Nc2ncc(-c3cncnc3)c(N3CCC3)n2)cc1Cl` [Example 67, 4-(azetidin-1-yl)-N-(3-chloro-4-fluorophenyl)-5-pyrimidin-5-ylpyrimidin-2-amine] here?
The inhibition at 13 µM was 53.4%.

Which inhibition at 13 µM does the source give for `O[C@H]1CC[C@H](Nc2nc(Nc3ccc(F)c(Cl)c3)ncc2-c2cncnc2)CC1` [Example 68, trans-4-[[2-[(3-chloro-4-fluorophenyl)amino]-5-pyrimidin-5-ylpyrimidin-4-yl]amino]cyclohexan-1-ol] here?
The inhibition at 13 µM was 72.9%.

How did the inhibition at 13 µM turn out when `CC(=O)NC1CCN(c2nc(Nc3ccc(F)c(Cl)c3)ncc2-c2cncnc2)CC1` [Example 69, N-[1-[2-[(3-chloro-4-fluorophenyl)amino]-5-pyrimidin-5-ylpyrimidin-4-yl]piperidin-4-yl]acetamide] was run?
Its inhibition at 13 µM is 77%.

How did the inhibition at 13 µM turn out when `Cc1cc(C(F)(F)F)nn1-c1nc(Nc2ccc(F)c(Cl)c2)ncc1-c1cncnc1` [Example 70, N-(3-chloro-4-fluorophenyl)-4-[5-methyl-3-(trifluoromethyl)-1H-pyrazol-1-yl]-5,5′-bipyrimidin-2-amine] was run?
Its inhibition at 13 µM is 86.6%.

`Fc1ccc(Nc2ncc(-c3cncnc3)c(-n3ccc(C(F)(F)F)n3)n2)cc1Cl` [Example 71, N-(3-chloro-4-fluorophenyl)-4-[3-(trifluoromethyl)-1H-pyrazol-1-yl]-5,5′-bipyrimidin-2-amine] was tested. Which inhibition at 13 µM did it give?
Its inhibition at 13 µM is 66.7%.

Which inhibition at 13 µM does the source give for `Fc1ccc(Nc2ncc(-c3cncnc3)c(-n3cnc(Cl)c3Cl)n2)cc1Cl` [Example 72, N-(3-chloro-4-fluorophenyl)-4-(4,5-dichloro-1H-imidazol-1-yl)-5,5′-bipyrimidin-2-amine] here?
The inhibition at 13 µM was 52.6%.

Which inhibition at 13 µM does the source give for `Fc1ccc(Nc2ncc(-c3cncnc3)c(-n3cccc3)n2)cc1Cl` [Example 73, N-(3-chloro-4-fluorophenyl)-4-(1H-pyrrol-1-yl)-5,5′-bipyrimidin-2-amine] here?
The inhibition at 13 µM was 89.6%.

Which inhibition at 13 µM does the source give for `CC(C)(C)OC(=O)NCCCNc1nc(Nc2ccc(F)c(Cl)c2)ncc1-c1cncnc1` [Example 74, tert-butyl 3-(2-(3-chloro-4-fluorophenylamino)-5,5′-bipyrimidin-4-ylamino)propylcar-bamate] here?
Its inhibition at 13 µM is 103%.

For `COCCCNc1nc(Nc2ccc(F)c(Cl)c2)ncc1-c1cncnc1` [Example 75, N^2-(3-chloro-4-fluorophenyl)-N^4-(3-methoxypropyl)-5,5′-bipyrimidin-2,4-diamine], which inhibition at 13 µM is on record?
Its inhibition at 13 µM is 97.6%.

Which inhibition at 13 µM does the source give for `Fc1ccc(Nc2ncc(-c3cncnc3)c(N3CCOCC3)n2)cc1Cl` [Example 76, N-(3-chloro-4-fluorophenyl)-4-morpholin-5,5′-bipyrimidin-2-amine] here?
Its inhibition at 13 µM is 79.3%.

With `COc1ncc(-c2cnc(Nc3ccc(F)c(Cl)c3)nc2N2CCOCC2)cn1` [Example 77, N-(3-chloro-4-fluorophenyl)-2′-methoxy-4-morpholin-5,5′-bipyrimidin-2-amine] as the molecule, how does the inhibition at 13 µM read?
Its inhibition at 13 µM is 83%.

Which inhibition at 13 µM does the source give for `COCCCNc1nc(Nc2ccc(F)c(Cl)c2)ncc1-c1cnc(OC)nc1` [Example 78, N^2-(3-chloro-4-fluorophenyl)-2′-methoxy-N^4-(3-methoxypropyl)-5,5′-bipyrimidine-2,4-diamine] here?
Its inhibition at 13 µM is 80.9%.

Which inhibition at 13 µM does the source give for `CN(C)CCCNc1nc(Nc2ccc(F)c(Cl)c2)ncc1-c1cncc(-c2noc(=O)[nH]2)c1` [Example 81, Sodium 3-(5-(2-(3-chloro-4-fluorophenylamino)-4-(3-(dimethylamino)propylamino)pyrimidin-5-yl)pyridin-3-yl)-5-oxo-1,2,4-oxadiazol-4-ide] here?
The inhibition at 13 µM was 72.6%.

With `Cc1cc(C)n(-c2nc(Nc3ccc(F)c(Cl)c3)ncc2-c2cncnc2)n1` [Example 82, N-(3-chloro-4-fluorophenyl)-4-(3,5-dimethyl-1H-pyrazol-1-yl)-5,5′-bipyrimidin-2-amine] as the molecule, how does the inhibition at 13 µM read?
The inhibition at 13 µM was 80.1%.

`Fc1ccc(Nc2ncc(-c3cncnc3)c(-n3cnc(C(F)(F)F)c3)n2)cc1Cl` [Example 84, N-(3-chloro-4-fluorophenyl)-4-[4-(trifluoromethyl)-1H-imidazol-1-yl]-5,5′-bipyrimidin-2-amine] was tested. Which inhibition at 13 µM did it give?
The inhibition at 13 µM was 79.6%.

For `Cc1nccn1-c1nc(Nc2ccc(F)c(Cl)c2)ncc1-c1cncnc1` [Example 85, N-(3-chloro-4-fluorophenyl)-4-(2-methyl-1H-imidazol-1-yl)-5,5′-bipyrimidin-2-amine], which inhibition at 13 µM is on record?
The inhibition at 13 µM was 66.8%.

`Fc1ccc(Nc2ncc(-c3cncnc3)c(-n3nccn3)n2)cc1Cl` [Example 86, N-(3-chloro-4-fluorophenyl)-4-(2H-1,2,3-triazol-2-yl)-5,5′-bipyrimidin-2-amine] was tested. Which inhibition at 13 µM did it give?
Its inhibition at 13 µM is 91.1%.

With `Fc1ccc(Nc2ncc(-c3cncnc3)c(-n3nnc4ncccc43)n2)cc1Cl` [Example 88, N-(3-chloro-4-fluorophenyl)-4-(1H-[1,2,3]triazolo[4,5-b]pyridin-1-yl)-5,5′-bipyrimidin-2-amine] as the molecule, how does the inhibition at 13 µM read?
The inhibition at 13 µM was 102%.

Which inhibition at 13 µM does the source give for `Fc1ccc(Nc2ncc(-c3cncnc3)c(-n3nnc4ccccc43)n2)cc1Cl` [Example 89, 4-(1H-benzotriazol-1-yl)-N-(3-chloro-4-fluorophenyl)-5,5′-bipyrimidin-2-amine] here?
Its inhibition at 13 µM is 85.3%.

For `CCCNc1nc(Nc2ccc(F)c(Cl)c2)ncc1-c1cncc(C(=O)OCC)c1` [Example 90, 5-[2-(3-Chloro-4-fluoro-phenylamino)-4-propylamino-pyrimidin-5-yl]-nicotinic acid ethyl ester], which inhibition at 13 µM is on record?
Its inhibition at 13 µM is 24.6%.

`CCOC(=O)c1cncc(-c2cnc(Nc3ccc(F)c(Cl)c3)nc2NCCCN2CCCC2=O)c1` [Example 91, 5-{2-(3-Chloro-4-fluoro-phenylamino)-4-[3-(2-oxo-pyrrolidin-1-yl)-propylamino]-pyrimidin-5-yl}-nicotinic acid ethyl ester] was tested. Which inhibition at 13 µM did it give?
The inhibition at 13 µM was 83.1%.

For `CCOC(=O)c1cncc(-c2cnc(Nc3ccc(F)c(Cl)c3)nc2NC2CCN(C(C)=O)CC2)c1` [Example 92, 5-[4-(1-Acetyl-piperidin-4-ylamino)-2-(3-chloro-4-fluoro-phenylamino)-pyrimidin-5-yl]-nicotinic acid ethyl ester], which inhibition at 13 µM is on record?
Its inhibition at 13 µM is 3.56%.

Which inhibition at 13 µM does the source give for `CCOC(=O)c1cncc(-c2cnc(Nc3ccc(F)c(Cl)c3)nc2NCCN(C)C)c1` [Example 93] here?
The inhibition at 13 µM was 79.6%.

For `CCOC(=O)c1cncc(-c2cnc(Nc3ccc(F)c(Cl)c3)nc2NCCNC(C)=O)c1` [Example 94, 5-[4-(2-Acetylamino-ethylamino)-2-(3-chloro-4-fluoro-phenylamino)-pyrimidin-5-yl]-nicotinic acid ethyl ester], which inhibition at 13 µM is on record?
The inhibition at 13 µM was 77.5%.

`CCOC(=O)c1cncc(-c2cnc(Nc3ccc(F)c(Cl)c3)nc2NCc2ccccn2)c1` [Example 95, 5-{2-(3-Chloro-4-fluoro-phenylamino)-4-[(pyridin-2-ylmethyl)-amino]-pyrimidin-5-yl}-nicotinic acid ethyl ester] was tested. Which inhibition at 13 µM did it give?
Its inhibition at 13 µM is -0.48%.

`CCOC(=O)c1cncc(-c2cnc(Nc3ccc(F)c(Cl)c3)nc2NCc2cccnc2)c1` [Example 96, 5-{2-(3-Chloro-4-fluoro-phenylamino)-4-[(pyridin-3-ylmethyl)-amino]-pyrimidin-5-yl}-nicotinic acid ethyl ester] was tested. Which inhibition at 13 µM did it give?
Its inhibition at 13 µM is 62.2%.

For `CCOC(=O)c1cncc(-c2cnc(Nc3ccc(F)c(Cl)c3)nc2NCc2ccncc2)c1` [Example 97, 5-{2-(3-Chloro-4-fluoro-phenylamino)-4-[(pyridin-4-ylmethyl)-amino]-pyrimidin-5-yl}-nicotinic acid ethyl ester], which inhibition at 13 µM is on record?
Its inhibition at 13 µM is 75.9%.

How did the inhibition at 13 µM turn out when `CCOC(=O)c1cncc(-c2cnc(Nc3ccc(F)c(Cl)c3)nc2NCCNC(=O)OC(C)(C)C)c1` [Example 98, 5-[4-(2-tert-Butoxycarbonylamino-ethylamino)-2-(3-chloro-4-fluoro-phenylamino)-pyrimidin-5-yl]-nicotinic acid ethyl ester] was run?
The inhibition at 13 µM was 59.4%.

For `CCOC(=O)c1cncc(-c2cnc(Nc3ccc(F)c(Cl)c3)nc2NCCC(N)=O)c1` [Example 99, 5-[4-(2-Carbamoyl-ethylamino)-2-(3-chloro-4-fluoro-phenylamino)-pyrimidin-5-yl]-nicotinic acid ethyl ester], which inhibition at 13 µM is on record?
The inhibition at 13 µM was 82%.

For `CCOC(=O)c1cncc(-c2cnc(Nc3ccc(F)c(Cl)c3)nc2NCCN2CCOCC2)c1` [Example 100, 5-[2-(3-Chloro-4-fluoro-phenylamino)-4-(2-morpholin-4-yl-ethylamino)-pyrimidin-5-yl]-nicotinic acid ethyl ester], which inhibition at 13 µM is on record?
Its inhibition at 13 µM is 74.2%.

For `CCOC(=O)c1cncc(-c2cnc(Nc3ccc(F)c(Cl)c3)nc2NCCc2ccccn2)c1` [Example 101, 5-[2-(3-Chloro-4-fluoro-phenylamino)-4-(2-pyridin-2-yl-ethylamino)-pyrimidin-5-yl]-nicotinic acid ethyl ester], which inhibition at 13 µM is on record?
The inhibition at 13 µM was 8.69%.

How did the inhibition at 13 µM turn out when `CCOC(=O)c1cncc(-c2cnc(Nc3ccc(F)c(Cl)c3)nc2NCCc2cccnc2)c1` [Example 102, 5-[2-(3-Chloro-4-fluoro-phenylamino)-4-(2-pyridin-3-yl-ethylamino)-pyrimidin-5-yl]-nicotinic acid ethyl ester] was run?
The inhibition at 13 µM was 73.5%.

For `CCOC(=O)c1cncc(-c2cnc(Nc3ccc(F)c(Cl)c3)nc2NCCc2ccncc2)c1` [Example 103, 5-[2-(3-Chloro-4-fluoro-phenylamino)-4-(2-pyridin-4-yl-ethylamino)-pyrimidin-5-yl]-nicotinic acid ethyl ester], which inhibition at 13 µM is on record?
Its inhibition at 13 µM is 79.5%.

Source: US20100137313A1 (ASTRAZENECA AB, priority 2008, published 2010)
